Source: the NIST ThermoML archive (doi:10.1021/je060411g)
± gives the expanded uncertainty stated by the source.

Test: molar heat capacity at constant pressure
Conditions: 101.33 kPa

CCCC(C)O (stereo not drawn) [pentan-2-ol]
Conditions | molar heat capacity at constant pressure [J/K/mol]
79.67 K, Glass | 63.18 ± 1.6
80.46 K, Glass | 63.33 ± 1.6
82.3 K, Glass | 64.14 ± 1.6
84.42 K, Glass | 67.58 ± 1.7
85.14 K, Glass | 66.47 ± 1.7
85.32 K, Glass | 67.84 ± 1.7
86.75 K, Glass | 68.64 ± 1.7
87.94 K, Glass | 69.06 ± 1.7
88.7 K, Glass | 70.03 ± 1.7
90.63 K, Glass | 71.1 ± 2.1
90.73 K, Glass | 70.94 ± 2.1
92.44 K, Glass | 69.53 ± 2.1
92.56 K, Glass | 72.26 ± 2.2
93.14 K, Glass | 65.87 ± 2
93.54 K, Glass | 72.61 ± 2.1
94.47 K, Glass | 69.28 ± 2.1
94.5 K, Glass | 73.35 ± 2.1
95.82 K, Glass | 74.84 ± 2.2
96.37 K, Glass | 74.28 ± 2.1
96.39 K, Glass | 69.82 ± 2.2
96.44 K, Glass | 74.4 ± 2.1
96.51 K, Glass | 73.84 ± 2.1
97.85 K, Glass | 74.9 ± 2.2
98.3 K, Glass | 70.93 ± 2.4
98.39 K, Glass | 75.87 ± 2.4
99.21 K, Glass | 76.42 ± 2.2
99.81 K, Glass | 76.63 ± 2.2
100.21 K, Glass | 72.31 ± 2.1
100.33 K, Glass | 77.32 ± 2.4
101.76 K, Glass | 76.89 ± 2.2
102.06 K, Glass | 77.9 ± 2.2
102.12 K, Glass | 72.26 ± 2.1
102.28 K, Glass | 78.12 ± 2.3
103.71 K, Glass | 77.71 ± 2.2
104.04 K, Glass | 72.83 ± 2.1
104.24 K, Glass | 78.97 ± 2.2
104.91 K, Glass | 79.34 ± 2.2
105.66 K, Glass | 79.19 ± 2.2
105.95 K, Glass | 74.19 ± 2.1
106.19 K, Glass | 80.14 ± 2.3
107.61 K, Glass | 80.61 ± 2.3
107.78 K, Glass | 81.22 ± 2.3
107.87 K, Glass | 75.02 ± 2.2
108.15 K, Glass | 81.83 ± 2.3
109.56 K, Glass | 81.6 ± 2.3
109.78 K, Glass | 76.24 ± 2.2
110.11 K, Glass | 83.03 ± 2.3
110.65 K, Glass | 82.72 ± 2.3
111.51 K, Glass | 82.56 ± 2.4
111.7 K, Glass | 77.13 ± 2.2
112.08 K, Glass | 84.03 ± 2.3
113.47 K, Glass | 83.55 ± 2.4
113.52 K, Glass | 84.21 ± 2.5
113.62 K, Glass | 77.89 ± 2.2
114.05 K, Glass | 85.23 ± 2.4
115.43 K, Glass | 84.36 ± 2.6
115.53 K, Glass | 78.83 ± 2.5
116.02 K, Glass | 86.13 ± 2.4
116.41 K, Glass | 85.6 ± 2.4
117.39 K, Glass | 85.19 ± 3
117.45 K, Glass | 79.39 ± 3
117.99 K, Glass | 86.99 ± 2.4
119.31 K, Glass | 86.83 ± 3.2
119.36 K, Glass | 85.74 ± 2.4
119.37 K, Glass | 80.16 ± 3.2
119.97 K, Glass | 87.03 ± 2.4
121.3 K, Glass | 80.85 ± 2.3
121.33 K, Glass | 86.41 ± 2.4
121.95 K, Glass | 88.36 ± 2.4
122.2 K, Glass | 88.5 ± 2.4
123.23 K, Glass | 82.6 ± 2.9
123.29 K, Glass | 88 ± 3
123.94 K, Glass | 89.95 ± 2.4
125.11 K, Glass | 91.4 ± 2.5
125.15 K, Glass | 84.47 ± 2.5
125.26 K, Glass | 89.98 ± 2.4
125.92 K, Glass | 92.63 ± 2.5
127.07 K, Glass | 88.92 ± 2.6
127.21 K, Glass | 95.14 ± 2.7
134.18 K, Liquid | 138.36 ± 3.4
134.47 K, Liquid | 145.14 ± 3.5
135.24 K, Liquid | 146.4 ± 3.5
136 K, Liquid | 146.52 ± 3.5
136.05 K, Liquid | 138.34 ± 3.4
136.39 K, Liquid | 145.03 ± 3.5
137.22 K, Liquid | 146.29 ± 3.5
137.97 K, Liquid | 138.35 ± 3.4
138.36 K, Liquid | 145.17 ± 3.5
138.84 K, Liquid | 146.59 ± 3.5
139.21 K, Liquid | 146.22 ± 3.5
139.9 K, Liquid | 138.69 ± 3.4
140.33 K, Liquid | 145.48 ± 3.5
141.2 K, Liquid | 146.34 ± 3.5
141.77 K, Liquid | 146.74 ± 3.5
141.83 K, Liquid | 139.02 ± 3.4
142.3 K, Liquid | 145.81 ± 3.5
143.19 K, Liquid | 146.48 ± 3.5
143.77 K, Liquid | 139.32 ± 3.4
144.73 K, Liquid | 146.91 ± 3.5
145.18 K, Liquid | 146.45 ± 3.5
147.18 K, Liquid | 146.59 ± 3.5
147.68 K, Liquid | 147.17 ± 3.5
149.17 K, Liquid | 146.66 ± 3.5
150.63 K, Liquid | 147.42 ± 3.5
151.16 K, Liquid | 146.74 ± 3.5
153.16 K, Liquid | 146.86 ± 3.5
153.58 K, Liquid | 147.65 ± 3.5
155.16 K, Liquid | 147.04 ± 3.5
156.54 K, Liquid | 148.06 ± 3.6
157.16 K, Liquid | 147.26 ± 3.5
159.16 K, Liquid | 147.41 ± 3.5
159.5 K, Liquid | 148.35 ± 3.6
161.15 K, Liquid | 147.59 ± 3.5
162.46 K, Liquid | 148.75 ± 3.6
163.15 K, Liquid | 147.87 ± 3.5
165.15 K, Liquid | 148.07 ± 3.6
165.42 K, Liquid | 149.14 ± 3.6
167.15 K, Liquid | 148.38 ± 3.6
